Test results published in PubChem BioAssay AID1259407 (Chemical Carcinogenesis Research Information System (CCRIS), 2018).
Calls of active or inactive are those of the source. The rule behind the calls is not given here.

System: CCRIS mutagenicity, Ames/micronucleus/aberration tests
Experiment: CCRIS mutagenicity studies
Conditions: Test System: AMES SALMONELLA TYPHIMURIUM
[1] = Strain/Indicator: TA98, Metabolic Activation: NONE, Method: STANDARD PLATE
[2] = Strain/Indicator: TA98, Metabolic Activation: RAT, LIVER, S-9, AROCLOR 1254, Method: STANDARD PLATE
[3] = Strain/Indicator: TA100, Metabolic Activation: NONE, Method: STANDARD PLATE
[4] = Strain/Indicator: TA100, Metabolic Activation: RAT, LIVER, S-9, AROCLOR 1254, Method: STANDARD PLATE

For `COc1cc(N=Nc2ccc(N(CCO)CCO)cc2)ccc1N=Nc1c(S(=O)(=O)O)cc2ccc(N)cc2c1O`, the mutagenic call [1] was “inactive; negative”, the mutagenic call [2] was “active; positive” and the mutagenic call [3] was “inactive; negative”. The mutagenic call [4] was “inactive; negative”, the mutagenic call (Strain/Indicator: TA1538, Metabolic Activation: NONE, Method: STANDARD PLATE) was “inactive; negative” and the mutagenic call (Strain/Indicator: TA1538, Metabolic Activation: RAT, LIVER, S-9, AROCLOR 1254, Method: STANDARD PLATE) was “active; positive”.

`c1ccc2c(c1)ccc1c2ccc2ccc3ccccc3c21` was tested, and the mutagenic call (Strain/Indicator: TA100, Metabolic Activation: RAT, LIVER, MICROSOMES, AROCLOR 1254, Method: STANDARD PLATE) was “active; positive”, the mutagenic call (Strain/Indicator: TA100, Metabolic Activation: RAT, LIVER, MICROSOMES, BENZO[C]CHRYSENE, Method: STANDARD PLATE) was “inactive; negative” and the mutagenic call (Strain/Indicator: TA100, Metabolic Activation: RAT, LIVER, MICROSOMES, Method: STANDARD PLATE) was “inactive; negative”.

In the case of `N#CC(Cl)(Cl)Cl`, the mutagenic call (Strain/Indicator: TA98, Metabolic Activation: NONE, Method: FLUCTUATION (MICROTITER)) is reported as “inactive; negative”, the mutagenic call [1] is reported as “inactive; negative” and the mutagenic call (Strain/Indicator: TA98, Metabolic Activation: RAT LIVER S-9, AROCLOR 1254, Method: FLUCTUATION (MICROTITER)) is reported as “inactive; negative”. For the same compound, the mutagenic call [2] was “inactive; negative”, the mutagenic call (Strain/Indicator: TA100, Metabolic Activation: NONE, Method: FLUCTUATION TEST) was “active; positive” and the mutagenic call [3] was “inactive; negative”. For the same compound, the mutagenic call (Strain/Indicator: TA100, Metabolic Activation: RAT, LIVER, S-9, AROCLOR 1254, Method: FLUCTUATION TEST) was “inactive; negative”, the mutagenic call [4] was “inactive; negative” and the mutagenic call (Strain/Indicator: TA1535, Metabolic Activation: NONE, Method: STANDARD PLATE) was “inactive; negative”. For the same compound, the mutagenic call (Strain/Indicator: TA1535, Metabolic Activation: RAT, LIVER, S-9, AROCLOR 1254, Method: STANDARD PLATE) was “inactive; negative”, the mutagenic call (Strain/Indicator: TA1537, Metabolic Activation: NONE, Method: FLUCTUATION (MICROTITER)) was “inactive; negative” and the mutagenic call (Strain/Indicator: TA1537, Metabolic Activation: RAT LIVER S-9, AROCLOR 1254, Method: FLUCTUATION (MICROTITER)) was “inactive; negative”. The mutagenic call (Strain/Indicator: TA7001, Metabolic Activation: NONE, Method: FLUCTUATION (MICROTITER)) was “inactive; negative”, the mutagenic call (Strain/Indicator: TA7001, Metabolic Activation: RAT LIVER S-9, AROCLOR 1254, Method: FLUCTUATION (MICROTITER)) was “inactive; negative” and the mutagenic call (Strain/Indicator: TA7002, Metabolic Activation: NONE, Method: FLUCTUATION (MICROTITER)) was “inactive; negative”. The mutagenic call (Strain/Indicator: TA7002, Metabolic Activation: RAT LIVER S-9, AROCLOR 1254, Method: FLUCTUATION (MICROTITER)) was “inactive; negative”, the mutagenic call (Strain/Indicator: TA7003, Metabolic Activation: NONE, Method: FLUCTUATION (MICROTITER)) was “inactive; negative” and the mutagenic call (Strain/Indicator: TA7003, Metabolic Activation: RAT LIVER S-9, AROCLOR 1254, Method: FLUCTUATION (MICROTITER)) was “inactive; negative”. The mutagenic call (Strain/Indicator: TA7004, Metabolic Activation: NONE, Method: FLUCTUATION (MICROTITER)) was “inactive; negative”, the mutagenic call (Strain/Indicator: TA7004, Metabolic Activation: RAT LIVER S-9, AROCLOR 1254, Method: FLUCTUATION (MICROTITER)) was “inactive; negative” and the mutagenic call (Strain/Indicator: TA7005, Metabolic Activation: NONE, Method: FLUCTUATION (MICROTITER)) was “inactive; negative”. The mutagenic call (Strain/Indicator: TA7005, Metabolic Activation: RAT LIVER S-9, AROCLOR 1254, Method: FLUCTUATION (MICROTITER)) was “inactive; negative”, the mutagenic call (Strain/Indicator: TA7006, Metabolic Activation: NONE, Method: FLUCTUATION (MICROTITER)) was “inactive; negative” and the mutagenic call (Strain/Indicator: TA7006, Metabolic Activation: RAT LIVER S-9, AROCLOR 1254, Method: FLUCTUATION (MICROTITER)) was “inactive; negative”.
